Results taken from patent US20250250269A1, “HETEROCYCLIC GLP-1 AGONISTS” (Gasherbrum Bio, Inc., priority 2022, published 2025).

What follows are compounds tested against T1, GLP-1 Receptor (Homo sapiens, UniProt P43220) (assay: GLP-1R agonist cAMP stimulation assay (HEK293/GLP1R/CRE-LUC cells, Cisbio cAMP dynamic 2 kit)). Settings: HEK293/CRE-Luc cells stably expressing the GLP-1 Receptor, 30 min at 37° C.
T1 construct: host or cells: HEK293/CRE-Luc (HEK293/GLP1R/CRE-LUC)
Assay type: cell-based
Method: Activation of GLP-1 receptor is known to stimulate cyclic AMP (cAMP) production in cells which indicates primary coupling to the Gas subunit of the G protein heterotrimeric complex.
To optimize functional activity directed toward Gas coupling, a HEK293/CRE-Luc cell line developed by HDB stably expressing the GLP-1 Receptor was used. 200× concentration of compound working solutions were prepared (Agilent Technologies Bravo) with ½ log serial dilution in 384-well Echo LDV plate (Labcyte, Cat #LP-0200). […] 200× concentration of compound working solutions were moved to 384-well white low volume plate (Greiner, Cat #784075) using Labcyte ECHO550. 1×10^5 cells/mL HEK293/GLP1R/CRE-LUC (HD Biosciences) cell suspensions prepared with assay buffer [DPBS containing 0.5 mM IBMX (Sigma, Cat #15879) and 0.1% BSA (GENVIEW, Cat #FA016-100g)], 10 μL cell suspensions were added to each well of previous generated assay plate which already contains […] compound at 200×concentration using ThermoFisher Multidrop Combi (1000 cells/well). Seal the plate and incubate at 37° C. with 5% CO2 for 30 min.
After incubation the cAMP assay signal was generated using cAMP dynamic 2 Kit (Cisbio). 5 μL cAMP-d2 working solution was added to each well, followed with 5 μL Anti-cAMP antibody-cryptate working solution added to each well using ThermoFisher Multidrop Combi. Incubate at room temperature for 1 hour protected from light. Read the fluorescence at 665 and 615 nm with Reader PerkinElmer EnVision.

T1 sequence (P43220 24-463, species assumed): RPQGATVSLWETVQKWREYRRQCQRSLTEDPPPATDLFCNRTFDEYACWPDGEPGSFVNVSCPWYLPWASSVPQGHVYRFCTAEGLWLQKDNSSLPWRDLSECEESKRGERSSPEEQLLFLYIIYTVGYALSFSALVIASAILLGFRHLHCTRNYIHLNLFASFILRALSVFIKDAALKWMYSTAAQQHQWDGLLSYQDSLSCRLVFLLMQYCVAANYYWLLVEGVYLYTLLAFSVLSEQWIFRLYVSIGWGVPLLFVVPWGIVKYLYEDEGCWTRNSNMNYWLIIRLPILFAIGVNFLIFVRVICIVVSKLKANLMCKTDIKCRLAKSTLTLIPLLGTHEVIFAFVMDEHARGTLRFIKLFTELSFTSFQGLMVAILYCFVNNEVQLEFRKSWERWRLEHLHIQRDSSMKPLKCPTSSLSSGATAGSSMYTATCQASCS

How did the EC50 turn out when `Fc1cc(Cl)ccc1COc1ccc(F)c(C2CCN(Cc3nc4cc(-c5nnc(C(F)(F)F)[nH]5)ncc4n3C[C@@H]3CCO3)CC2)n1` [Compound 47, 6-[(4-chloro-2-fluorophenyl)methoxy]-3-fluoro-2-{1-[(3-{[(2S)-oxetan-2-yl]methyl}-6-[5-(trifluoromethyl)-4H-1,2,4-triazol-3-yl]-3H-imidazo[4,5-c]pyridin-2-yl)methyl]piperidin-4-yl}pyridine] was run?
The EC50 was < 1 nM.

With `FC(F)(F)Oc1cccc(COc2cccc(C3CCN(Cc4nc5cc(-c6nnc(C(F)(F)F)[nH]6)ncc5n4C[C@@H]4CCO4)CC3)n2)n1` [Compound 10, (S)-3-(oxetan-2-ylmethyl)-2-((4-(6-((6-(trifluoromethoxy)pyridin-2-yl)methoxy)pyridin-2-yl)piperidin-1-yl)methyl)-6-(5-(trifluoromethyl)-4H-1,2,4-triazol-3-yl)-3H-imidazo[4,5-c]pyridine] as the compound, how does the EC50 read?
The EC50 was < 1 nM.

`FC(F)Oc1ccc(COc2cccc(C3CCN(Cc4nc5cc(-c6nnc(C(F)(F)F)[nH]6)ncc5n4C[C@@H]4CCO4)CC3)n2)cn1` [Compound 7, 2-{[6-(difluoromethoxy)pyridin-3-yl]methoxy}-6-{1-[(3-{[(2S)-oxetan-2-yl]methyl}-6-[5-(trifluoromethyl)-4H-1,2,4-triazol-3-yl]-3H-imidazo[4,5-c]pyridin-2-yl)methyl]piperidin-4-yl}pyridine] was tested. Which EC50 did it give?
The EC50 was < 1 nM.

Which EC50 does the source give for `CC1(c2ccc(F)cc2F)Oc2cccc(C3CCN(Cc4nc5cc(-c6nnc(C(F)(F)F)[nH]6)ncc5n4C[C@@H]4CCO4)CC3)c2O1` (stereo partly drawn) [Compound 54, 4-[2-(2,4-difluorophenyl)-2-methyl-2H-1,3-benzodioxol-4-yl]-1-[(3-{[(2S)-oxetan-2-yl]methyl}-6-[5-(trifluoromethyl)-4H-1,2,4-triazol-3-yl]-3H-imidazo[4,5-c]pyridin-2-yl)methyl]piperidine] here?
Its EC50 is < 1 nM.

Which EC50 does the source give for `CC1(c2ccc(Cl)cc2F)Oc2cccc(C3=CCN(Cc4nc5cc(-c6noc(=O)[nH]6)cc(F)c5n4C[C@@H]4CCO4)CC3)c2O1` (stereo partly drawn) [Compound 39, 3-(2-((4-(2-(4-chloro-2-fluorophenyl)-2-methylbenzo[d][1,3]dioxol-4-yl)-3,6-dihydropyridin-1(2H)-yl)methyl)-7-fluoro-1-(((S)-oxetan-2-yl)methyl)-1H-benzo[d]imidazol-5-yl)-1,2,4-oxadiazol-5(4H)-one] here?
The EC50 was 1 to 100 nM.

For `FC(F)Oc1cccc(COc2cccc(C3CCN(Cc4nc5cc(-c6nnc(C(F)(F)F)[nH]6)ncc5n4C[C@@H]4CCO4)CC3)n2)n1` [Compound 9, (S)-2-((4-(6-((6-(difluoromethoxy)pyridin-2-yl)methoxy)pyridin-2-yl)piperidin-1-yl)methyl)-3-(oxetan-2-ylmethyl)-6-(5-(trifluoromethyl)-4H-1,2,4-triazol-3-yl)-3H-imidazo[4,5-c]pyridine], which EC50 is on record?
Its EC50 is < 1 nM.

With `C[C@]1(c2ccc(Cl)cn2)Oc2cccc([C@H]3CCN(Cc4nc5cc(-c6nnc(C(F)(F)F)[nH]6)ncc5n4C[C@@H]4CCO4)C[C@@H]3F)c2O1` (single isomer, unassigned) [Compound 62] as the compound, how does the EC50 read?
Its EC50 is < 1 nM.

For `C[C@]1(c2ccc(Cl)cc2F)Oc2cccc(C3CCN(Cc4nc5c(F)c(C(=O)O)ccc5n4C[C@@H]4CCO4)CC3)c2O1` [Compound 27, 2-((4-((S)-2-(4-chloro-2-fluorophenyl)-2-methylbenzo[d][1,3]dioxol-4-yl)piperidin-1-yl)methyl)-4-fluoro-1-(((S)-oxetan-2-yl)methyl)-1H-benzo[d]imidazole-5-carboxylic acid], which EC50 is on record?
Its EC50 is < 1 nM.

With `O=C1CN(Cc2nc3cc(-c4nnc(C(F)(F)F)[nH]4)ncc3n2C[C@@H]2CCO2)CCN1c1ccc(F)c(OCc2ccc(Cl)cc2F)n1` [Compound 52, 1-{6-[(4-chloro-2-fluorophenyl)methoxy]-5-fluoropyridin-2-yl}-4-[(3-{[(2S)-oxetan-2-yl]methyl}-6-[5-(trifluoromethyl)-4H-1,2,4-triazol-3-yl]-3H-imidazo[4,5-c]pyridin-2-yl)methyl]piperazin-2-one] as the compound, how does the EC50 read?
Its EC50 is < 1 nM.

Which EC50 does the source give for `O=C(O)c1cc2nc(CN3CCC(c4cccc(OCc5ccc(Cl)cc5F)n4)CC3)n(C[C@@H]3CCO3)c2cn1` [Compound 28, (S)-2-((4-(6-((4-chloro-2-fluorobenzyl)oxy)pyridin-2-yl)piperidin-1-yl)methyl)-3-(oxetan-2-ylmethyl)-3H-imidazo[4,5-c]pyridine-6-carboxylic acid] here?
Its EC50 is < 1 nM.

How did the EC50 turn out when `Cc1c(Cl)ccc(COc2cccc(C3CCN(Cc4nc5cc(-c6nnc(C(F)(F)F)[nH]6)ncc5n4C[C@@H]4CCO4)CC3)n2)c1F` [Compound 4, 2-[(4-chloro-2-fluoro-3-methylphenyl)methoxy]-6-{1-[(3-{[(2S)-oxetan-2-yl]methyl}-6-[5-(trifluoromethyl)-4H-1,2,4-triazol-3-yl]-3H-imidazo[4,5-c]pyridin-2-yl)methyl]piperidin-4-yl}pyridine] was run?
Its EC50 is < 1 nM.

With `Fc1cc(Cl)ccc1COc1nc(C2CCN(Cc3nc4cc(-c5nnc(C(F)(F)F)[nH]5)nnc4n3C[C@@H]3CCO3)CC2)c(F)cc1F` [Compound 50, 2-[(4-chloro-2-fluorophenyl)methoxy]-3,5-difluoro-6-{1-[(7-{[(2S)-oxetan-2-yl]methyl}-3-[5-(trifluoromethyl)-4H-1,2,4-triazol-3-yl]-7H-imidazo[4,5-c]pyridazin-6-yl)methyl]piperidin-4-yl}pyridine] as the compound, how does the EC50 read?
Its EC50 is < 1 nM.

`O=C1CN(Cc2nc3cc(-c4nnc(C(F)(F)F)[nH]4)ncc3n2C[C@@H]2CCO2)CCN1c1ccc(F)c(OCc2ccc(Cl)cc2F)c1` [Compound 51, 1-{3-[(4-chloro-2-fluorophenyl)methoxy]-4-fluorophenyl}-4-[(3-{[(2S)-oxetan-2-yl]methyl}-6-[5-(trifluoromethyl)-4H-1,2,4-triazol-3-yl]-3H-imidazo[4,5-c]pyridin-2-yl)methyl]piperazin-2-one] was tested. Which EC50 did it give?
The EC50 was < 1 nM.

With `FC(F)(F)c1nnc(-c2cc3nc(CN4CCC(c5cccc(OCc6ccc(Cl)c7c6OCO7)n5)CC4)n(C[C@@H]4CCO4)c3cn2)[nH]1` [Compound 16, (S)-2-((4-(6-((7-chlorobenzo[d][1,3]dioxol-4-yl)methoxy)pyridin-2-yl)piperidin-1-yl)methyl)-3-(oxetan-2-ylmethyl)-6-(5-(trifluoromethyl)-4H-1,2,4-triazol-3-yl)-3H-imidazo[4,5-c]pyridine] as the compound, how does the EC50 read?
Its EC50 is < 1 nM.

Which EC50 does the source give for `Cc1nnc(-c2cc(F)c3c(c2)nc(CN2CCC(c4cccc5c4O[C@@](C)(c4ccc(Cl)cn4)O5)CC2)n3C[C@@H]2CCO2)[nH]1` [Compound 42, 2-((4-((S)-2-(5-chloropyridin-2-yl)-2-methylbenzo[d][1,3]dioxol-4-yl)piperidin-1-yl)methyl)-7-fluoro-5-(5-methyl-4H-1,2,4-triazol-3-yl)-1-(((S)-oxetan-2-yl)methyl)-1H-benzo[d]imidazole] here?
Its EC50 is < 1 nM.

How did the EC50 turn out when `O=c1[nH]c(-c2ccc3c(nc(CN4CCC(c5cccc(OCc6ccc(Cl)cc6F)n5)CC4)n3C[C@@H]3CCO3)c2F)no1` [Compound 35, (S)-3-(2-((4-(6-((4-chloro-2-fluorobenzyl)oxy)pyridin-2-yl)piperidin-1-yl)methyl)-4-fluoro-1-(oxetan-2-ylmethyl)-1H-benzo[d]imidazol-5-yl)-1,2,4-oxadiazol-5(4H)-one] was run?
The EC50 was < 1 nM.

`Cc1ccc(COc2cccc(C3CCN(Cc4nc5cc(-c6nnc(C(F)(F)F)[nH]6)ncc5n4C[C@@H]4CCO4)CC3)n2)c(OC(F)F)n1` [Compound 15, (S)-2-((4-(6-((2-(difluoromethoxy)-6-methylpyridin-3-yl)methoxy)pyridin-2-yl)piperidin-1-yl)methyl)-3-(oxetan-2-ylmethyl)-6-(5-(trifluoromethyl)-4H-1,2,4-triazol-3-yl)-3H-imidazo[4,5-c]pyridine] was tested. Which EC50 did it give?
The EC50 was < 1 nM.

How did the EC50 turn out when `Fc1cc(Cl)ccc1COc1nc(N2CCN(Cc3nc4cc(-c5nnc(C(F)(F)F)[nH]5)ncc4n3C[C@@H]3CCO3)CC2)c(F)cc1F` [Compound 48, 1-{6-[(4-chloro-2-fluorophenyl)methoxy]-3,5-difluoropyridin-2-yl}-4-[(3-{[(2S)-oxetan-2-yl]methyl}-6-[5-(trifluoromethyl)-4H-1,2,4-triazol-3-yl]-3H-imidazo[4,5-c]pyridin-2-yl)methyl]piperazine] was run?
The EC50 was < 1 nM.

With `C[C@]1(c2ccc(Cl)cc2F)Oc2cccc(C3CCN(Cc4nc5cc(C(=O)O)ncc5n4C[C@@H]4CCO4)CC3)c2O1` [Compound 23, 2-((4-((S)-2-(4-chloro-2-fluorophenyl)-2-methylbenzo[d][1,3]dioxol-4-yl)piperidin-1-yl)methyl)-3-(((S)-oxetan-2-yl)methyl)-3H-imidazo[4,5-c]pyridine-6-carboxylic acid] as the compound, how does the EC50 read?
The EC50 was < 1 nM.

With `FC(F)Oc1cc(COc2cccc(C3CCN(Cc4nc5cc(-c6nnc(C(F)(F)F)[nH]6)ncc5n4C[C@@H]4CCO4)CC3)n2)ccn1` [Compound 8, (S)-2-((4-(6-((2-(difluoromethoxy)pyridin-4-yl)methoxy)pyridin-2-yl)piperidin-1-yl)methyl)-3-(oxetan-2-ylmethyl)-6-(5-(trifluoromethyl)-4H-1,2,4-triazol-3-yl)-3H-imidazo[4,5-c]pyridine] as the compound, how does the EC50 read?
The EC50 was < 1 nM.
